Earlier results in paper PMC3946937 (Pharmaceutical research, 2013).
Read-outs that look alike come from different tables or passages of the source.

Experiments:
Mtb [1] = system: Mtb
Mtb [2] = conditions: read-out: Mtb Activity in vitro: IC90
Mtb [3] = system: Mtb; remark: listed apart in the source

SMILES: O=C(Nc1ccc(F)c(F)c1F)NC1C2CC3CC(C2)CC1C3 (stereo not shown) [AU1235]
- Mtb Activity in vitro: MIC (Mtb [1]): MIC 0.1μg/ml

SMILES: CN1C(=O)[C@]23CC4=CC=C[C@H](O)[C@H]4N2C(=O)[C@@]1(CO)SS3 [Gliotoxin]
- IC90 (Mtb [2]): 140 nM

SMILES: CCCCC1C(=O)N(c2ccccc2)N(c2ccc(O)cc2)C1=O (stereo not shown) [Oxyphenbutazone]
- Mtb Activity in vitro: MIC (Mtb [3]): MIC 10μg/ml
- Notes: activity in words (Mtb [3]; non-replicating TB): Active against non-replicating TB Metabolite active against replicating TB-screened ~5600 compounds
